Reference: US20240366560A1, “SMALL MOLECULE TREATMENT OF FATTY LIVER DISEASE AND HCC” (ScandiEdge Therapeutics AB, priority 2021, published 2024)

How the values were obtained:
PKLR [1] = assay: PKLR protein level by western blot in HepG2, 2-day drug treatment; type: cell-based; settings: HepG2, two days of treatment, dosages per FIG. 5, P<0.05, FIG. 2A
Experimental: WT HepG2 was included in this study and cultured by Roswell Park Memorial Institute (RPMI, […], Sigma Aldrich) 1640 Medium with 10% fetal bovine serum (FBS) and 1% penicillin-streptomycin (PS). To induce a steatosis model into WT HepG2 cells, high glucose Dulbecco's Modified Eagle Media (DMEM, […]/[…], Sigma-Aldrich) containing 10% FBS and 1% PS was used as medium for one week, together with 10 μg/mL insulin and 10 μM T0901317. All of cells were incubated in the incubator with 5% CO2 and 37° C. (Thermo […]). Fresh medium was provided every two days. As for drug-screening, different numbers of HepG2 cells were seeded for distinct experiments. More in details, 40,000 cells and 500,000 cells were used for 2-day-drug treatment in 96-well-plate and 6-well plate, respectively, while 80,000 cells and 300,000 cells were used for one-week drug treatment in 96-well plate and 6-well plate, respectively. […] Fresh medium was provided every two days. Protein content levels were detected by western blot. After the respective treatment of drugs, the cell pellets were lysed in cell lytic M, followed by protein extraction from supernatant (10 min, 13,000r/min centrifuge). Extracted cell lysate was stored in -20° C. Proteins were quantified through Bovine albumin serum (BAS) standard curve with protein assay dye reagent (BIO-RAD). The proteins were separated by SDS-PAGE with 100v in 90 min by mini-protein TGX precast gels (4-15%, 15 wells, 15 μl/well, BIO-RAD), and then transfer to Mini PVDF transfer package through transfer system (Transfer-Turbo, BIO-RAD). After 30 min blocking with 5% skim milk in cold room (4° C.) and washing with TBST, membrane was cut by the size of interested proteins. Primary antibodies were added into the corresponding membrane sections for overnight binding. Then the membranes were washed with TBST, and the secondary antibodies were incubated for 1 h in cold room. The following antibody were used: (Goat pAb to Rb lg, ab205718, abcam; Rb pAb to beta-actin, ab8227, abcam; […]; Rb pAb to fatty acid synthase, ab99539, abcam). The bindings were imaged by immunostaining and machine (ImageQuant LAS 500). All antibodies were purchased from Abcam online, and βactin was used as global normalized protein. After measurement, the strength of signal for each protein was quantified by ImageJ. The background noise was removed, and all results were normalized by the levels of β-actin. To determine the inhibitory effects of these drugs on the expression level of PKLR, HepG2 was selected as the in vitro model for coherence. […] HepG2 cells were treated with these drugs for two days with different dosages due to their potential cellular toxicities (FIG. 5), and the PKLR protein level was the measured by western blotting. The level of protein expression of PKLR of the drug-treated groups was compared to that of the Ctrl group after normalizing with β-actin.

steatosis-induced HepG2 = assay: Triglyceride assay in steatosis-induced HepG2; type: cell-based; settings: steatosis-induced HepG2, 7 days of drug treatment, FIG. 2D
Experimental: All of cells were incubated in the incubator with 5% CO2 and 37° C. (Thermo […]). Fresh medium was provided every two days.

Sprague Dawley male rats [2] = assay: In vivo biosafety study: micronucleus frequencies (MNPCEs) in blood; design: species or system rat; settings: 30 mg/kg oral, 7 days, CHOW, p>0.05
Experimental: (§1) In vivo biosafety studies. Healthy Sprague Dawley male rats (12 weeks old, 250-280 g) were obtained from Atatürk University Experimental Research Center (ATADEM, Erzurum Turkey) and housed under standard environmental conditions (temperature 20° C.-25° C., humidity 50±20% and 12-hour light/dark diurnal cycle). Food and water were available ad libitum. Rats were randomly separated into one control group and two experimental groups (30 mg/kg/day BX-912 or JNK-IN-5A, n=5). BX-912 and JNK-IN-5A were dissolved in DMSO and orally administrated using oral gavage for 7 days. The control group were received the same amount of vehicle solution only.
(§2) After 7 days, rats were anaesthetized, and blood samples were collected from the abdominal aorta for biochemical and haematological analysis. The plasma was separated and stored at −80° C. for further analysis. Major organs such as heart, kidney, liver, muscle, adipose, intestine (duodenum, ileum, jejunum), pancreas, colon, and stomach were collected from all the animals for further analysis. Selected organs were fixed in 10% neutral buffered formalin for histopathological examination.
To evaluate the potential toxicity of BX-912 and JNK-IN-5A in animals, three groups of 12-week-old rats (n=5) were raised. The first group was fed with CHOW (Ctrl) for seven days. The second group was fed with CHOW plus BX-912 (30 mg/kg) for seven days. […]

Sprague Dawley male rats [3] = assay: In vivo biosafety study: histopathological examination of major organs; design: species or system rat; settings: 30 mg/kg oral, 7 days, CHOW
Experimental: as §1, §2
Histopathological examination. The liver tissues were fixed in 10% buffered formaldehyde solution. After fixation, the tissues were passed through graded alcohol and xylene series and embedded in paraffin blocks. 5 micrometer thick sections were taken serially from the paraffin blocks. Histopathological changes were evaluated by performing hematoxylin eosin staining on the sections taken. Sections were evaluated according to histopathological findings as none (−), mild (+), moderate (++) and severe (+++).
To evaluate the potential toxicity of BX-912 and JNK-IN-5A in animals, three groups of 12-week-old rats (n=5) were raised. The first group was fed with CHOW (Ctrl) for seven days. The second group was fed with CHOW plus BX-912 (30 mg/kg) for seven days. The third group was fed with CHOW plus JNK-IN-5A (30 mg/kg) for seven days. After the seven days, all rats were sacrificed, and tissue samples from major organs and blood samples were collected for biosafety evaluation.

Sprague Dawley male rats [4] = assay: In vivo biosafety study: immunohistochemical 8-OH-dG examination of liver; design: species or system rat; settings: 30 mg/kg oral, 7 days, CHOW
Experimental: as §1, §2
Immunohistochemical examination. After deparaffinization, the slides were immersed in antigen retrieval solution (pH 6.0) and heated in microwave for 15 min to unmask the antigens. The sections were then dipped in 3% H2O2 for 10 min to block endogenous peroxidase activity. […]

HepG2 cells = assay: MTT assay of liver cancer cell viability; type: cell-based; settings: HepG2, 10 μM, two days, FIG. 4
Experimental: HepG2 cells were seeded into a 96 well plate at 20,000 cells per well as hexaplicated. Next day, treatment of the cells with 10 μM drugs (BX-912 and JNK-IN-5A) was started. The treatment lasted for two days. Cell viability was measured using MTT assay. Cells were incubated with 5 mg/ml MTT 3-4 5-DIMETHYLTHIAZ ([…] Thermo fisher) in PBS for 2 h. Microplate reader measured cell viability O.D at 570 nm.

Pklr [5] = assay: In vivo efficacy study in rats: hepatic Pklr expression; settings: rat animal study
Experimental: In vivo efficacy studies. […] The HSD group were treated with vehicle solution only.

Compound: N#Cc1c(NC(=O)c2cccc3ccccc23)sc2c1CCCC2 [JNK-IN-5A, N-(3-cyano-4,5,6,7-tetrahydrobenzo [b]thien-2-yl)-1-naphthalenecarboxamide]
- protein expression of PKLR vs Ctrl, normalized with β-actin (PKLR [1]): significantly down-regulated
- content of TGs (normalized by cell viability) (steatosis-induced HepG2): significantly decreased
- frequencies of MNPCEs compared to Ctrl animals (Sprague Dawley male rats [2]): not statistically different
- histological structure of kidney, small intestine, large intestine, stomach, heart, pancreas, muscle tissues and liver (Sprague Dawley male rats [3]): normal histological structures
- side effects on the rats (overall conclusion) (Sprague Dawley male rats [3]): no side effects
- 8-OH-dG expression in liver tissues (IHC) (Sprague Dawley male rats [4]): negative
- viability of liver cancer cells in the MTT assay (HepG2 cells): significantly reduced
- hepatic Pklr expression in vivo (Pklr [5]): significantly decreased

Compound: O=C(Nc1cccc(Nc2ncc(Br)c(NCCc3cnc[nH]3)n2)c1)N1CCCC1 [BX-912, N-[3-[[5-bromo-4-[[2-(1H-imidazol-5-yl)ethyl]amino]-2-pyrimidinyl]amino]phenyl]-1-pyrrolidinecarboxamide]
- protein expression of PKLR vs Ctrl, normalized with β-actin (PKLR [1]): significantly down-regulated
- content of TGs (normalized by cell viability) (steatosis-induced HepG2): significantly decreased
- frequencies of MNPCEs compared to Ctrl animals (Sprague Dawley male rats [2]): not statistically different
- histological structure of kidney, small intestine, large intestine, stomach, heart, pancreas, muscle tissues and liver (Sprague Dawley male rats [3]): normal histological structures
- side effects on the rats (overall conclusion) (Sprague Dawley male rats [3]): no side effects
- 8-OH-dG expression in liver tissues (IHC) (Sprague Dawley male rats [4]): negative
- viability of liver cancer cells in the MTT assay (HepG2 cells): significantly reduced
- hepatic Pklr expression in vivo (Pklr [5]): significantly decreased
